Assay results from patent publication US20260083125A1, “METHODS FOR MANAGING HERBICIDE VAPORIZATION” (AgQuam R&D, LLC, priority 2016, published 2026).

Key:
[1] = Lecithin addition to sulfuric acid, urea sulfate and AQ 216 (lecithin stability); format: physicochemical; details: for Notes (result of lecithin addition): on addition
Description: Lecithin is known to be unstable in a sulfuric acid environment. […] For each reaction with urea sulfate and AQ 216, the urea sulfate was mixed thoroughly or AQ 216 was mixed thoroughly, before the addition of the lecithin composition.

[2] = tested on: Corn; experiment: Greenhouse study for weed control, corn; format: in vivo; details: Glyphosate 0.375 lb/acre; AMS 17 lb/100 gal; NIS, AQ 284, AQ 268 […] v/v; INTERLOCK 4 fl oz/acre
Procedure: (§1) A greenhouse study was conducted to test the efficacy of the AQ 284 combination water conditioning adjuvant and drift reduction composition compared to the commercial standard (INTERLOCK). Greenhouse research was conducted with individual plants growing in 3×3×3 inch pots. Greenhouse treatments were applied with a track sprayer using an 8002 E single nozzle applying 20 gpa.

[3] = tested on: Wheat; experiment: Greenhouse study for weed control, wheat; format: in vivo; details: Glyphosate 0.375 lb/acre; AMS 17 lb/100 gal; NIS, AQ 284, AQ 268 […] v/v; INTERLOCK 4 fl oz/acre
Procedure: as §1

[4] = tested on: Sunflower; experiment: Greenhouse study for weed control, sunflower; format: in vivo; details: Glyphosate 0.375 lb/acre; AMS 17 lb/100 gal; NIS, AQ 284, AQ 268 […] v/v; INTERLOCK 4 fl oz/acre
Procedure: as §1

[5] = tested on: Corn, Sunflower, Wheat; experiment: Greenhouse study for weed control, average of corn, sunflower and wheat; format: in vivo; details: Glyphosate 0.375 lb/acre; AMS 17 lb/100 gal; NIS, AQ 284, AQ 268 […] v/v; INTERLOCK 4 fl oz/acre
Procedure: as §1

[6] = lecithin composition AIRLINK 50 mL
[7] = lecithin composition LI 700 50 mL
[8] = lecithin composition LIBERATE 50 mL

| Structure (SMILES) | reaction with lecithin compositions ([1]; 50 mL of each of the lecithin compositions, equivalent amount of sulfuric acid (3 mL)) | Time 1 hour [1, 6] | Time 12 Hours [1, 6] | Notes (result of lecithin addition) ([1]; lecithin composition AIRLINK 50 mL, 3 mL sulfuric acid or 6 mL urea sulfate / AQ 216) | Time 1 hour [1, 7] | Time 12 Hours [1, 7] | Notes (result of lecithin addition) [1, 7] | Time 1 hour [1, 8] | Time 12 Hours [1, 8] | Notes (result of lecithin addition) [1, 8] | Corn % Control 18 Days After Application [2] | Wheat % Control 18 Days After Application [3] | Sunflower % Control 18 Days After Application [4] | Average % Control 18 Days After Application [5] |
| --- | --- | --- | --- | --- | --- | --- | --- | --- | --- | --- | --- | --- | --- | --- |
| O=S(=O)(O)O [Sulfuric Acid] | forming a precipitate | More precipitate | More precipitate | Dark Precipitate | More precipitate | More precipitate | Dark Precipitate | More precipitate | More precipitate | Dark Precipitate | – | – | – | – |
| O=C(O)CNCP(=O)(O)O [Glyphosate, N-phosphonomethylglycine] | – | – | – | – | – | – | – | – | – | – | 10.0% | 15.0% | 15.0% | 13.3% |
